Counter-ions that a name gives are not always drawn. ± gives the standard deviation of the averaged measurements.
Tested on: SK-ES-1
Test: relative viability vs DMSO control (72 h) (fraction); higher = more viable cells
Procedure, shortened: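 Sarcoma cell lines were seeded in 384-well plates at densities set to reach 80–90% confluence. After 24 h, 2.5 µl of serially diluted compound was added (source plates 10 mM to 0.0002 mM), and plates were held 72 h at 37 °C, 5% CO2, with 0.1% DMSO vehicle and a 5 µM positive control. Relative viability came from ATPLite readings as percent growth, averaged over up to triplicate wells. Data were rescaled so full viability equals 1 and none equals 0.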

| SMILES | relative viability (0.00017 µM) | relative viability (0.00051 µM) | relative viability (0.00152 µM) | relative viability (0.00457 µM) | relative viability (0.01372 µM) | relative viability (0.04115 µM) | relative viability (0.1235 µM) | relative viability (0.3704 µM) | relative viability (1.111 µM) | relative viability (3.333 µM) | relative viability (10 µM) | relative viability (2 pM) | relative viability (5 pM) | relative viability (15 pM) | relative viability (50 pM) | relative viability (0.00014 µM) | relative viability (0.00041 µM) | relative viability (0.0012 µM) | relative viability (0.0037 µM) | relative viability (0.011 µM) | relative viability (200 fM) | relative viability (600 fM) |
| --- | --- | --- | --- | --- | --- | --- | --- | --- | --- | --- | --- | --- | --- | --- | --- | --- | --- | --- | --- | --- | --- | --- |
| CCCS(=O)(=O)Nc1ccc(F)c(C(=O)c2c[nH]c3ncc(-c4ccc(Cl)cc4)cc23)c1F [Vemurafenib] | 1.02 ± 0.061 | 1.06 ± 0.043 | 1.08 ± 0.016 | 1.09 ± 0.022 | 1.06 ± 0.043 | 1.03 ± 0.045 | 1.05 ± 0.025 | 1.1 ± 0.011 | 1.04 ± 0.06 | 0.891 ± 0.078 | 0.534 ± 0.16 | – | – | – | – | – | – | – | – | – | – | – |
| COCc1c(-c2cc3cc(C)cc(OC)c3s2)c2c(N)ncnn2c1CN1CCNC(=O)C1 [Rogaratinib] | 1.04 ± 0.043 | 1.03 ± 0.044 | 1.02 ± 0.035 | 1.03 ± 0.049 | 1.07 ± 0.045 | 1.05 ± 0.065 | 0.982 ± 0.062 | 0.97 ± 0.011 | 0.848 ± 0.075 | 0.659 ± 0.027 | 0.463 ± 0.03 | – | – | – | – | – | – | – | – | – | – | – |
| C=CC(=O)N1CCC([C@@H]2CCNc3c(C(N)=O)c(-c4ccc(Oc5ccccc5)cc4)nn32)CC1 [Zanubrutinib] | 0.906 ± 0.065 | 0.938 ± 0.088 | 0.994 ± 0.05 | 0.984 ± 0.083 | 0.949 ± 0.043 | 0.953 ± 0.029 | 0.934 ± 0.041 | 0.953 ± 0.057 | 0.894 ± 0.069 | 0.903 ± 0.031 | 0.845 ± 0.038 | – | – | – | – | – | – | – | – | – | – | – |
| COc1cccc2c1C(=O)c1c(O)c3c(c(O)c1C2=O)C[C@@](O)(C(=O)CO)C[C@@H]3O[C@H]1C[C@H](N)[C@H](O)[C@H](C)O1 [Doxorubicin Hydrochloride] | 0.999 ± 0.033 | 1.05 ± 0.074 | 1 ± 0.057 | 0.991 ± 0.085 | 0.604 ± 0.065 | 0.307 ± 0.025 | 0.123 ± 0.014 | 0.0254 ± 0.0066 | 0.000533 ± 0.00072 | -0.000167 ± 0.00091 | 0.00357 ± 0.00093 | – | – | – | – | – | – | – | – | – | – | – |
| CC(C)NC(=O)C1CCC(n2c(NC(=O)c3ccc(F)cc3)nc3ccc(CN4CCC(C(C)(C)O)CC4)cc32)CC1 (stereo not drawn) [Belizatinib] | 1.03 ± 0.038 | 1.02 ± 0.041 | 1.06 ± 0.031 | 1.05 ± 0.029 | 1.05 ± 0.039 | 1.08 ± 0.032 | 0.943 ± 0.065 | 0.633 ± 0.031 | 0.311 ± 0.013 | 0.208 ± 0.01 | 0.0946 ± 0.0023 | – | – | – | – | – | – | – | – | – | – | – |
| COc1cc2/c(=N/c3ccc(Br)cc3F)nc[nH]c2cc1OCC1CCN(C)CC1 [Vandetanib] | 1 ± 0.03 | 0.992 ± 0.024 | 1.02 ± 0.037 | 1.033 ± 0.0099 | 1.06 ± 0.035 | 0.989 ± 0.051 | 1.008 ± 0.0093 | 0.917 ± 0.033 | 0.762 ± 0.032 | 0.389 ± 0.0099 | 0.0169 ± 0.0022 | – | – | – | – | – | – | – | – | – | – | – |
| C[C@@H]1CCN(C(=O)CC#N)C[C@@H]1N(C)c1ncnc2[nH]ccc12 [Tofacitinib] | 1 ± 0.032 | 1.05 ± 0.059 | 1.01 ± 0.023 | 1.03 ± 0.049 | 1.04 ± 0.046 | 1.01 ± 0.056 | 0.997 ± 0.056 | 1.01 ± 0.049 | 0.985 ± 0.081 | 1.03 ± 0.056 | 1.02 ± 0.06 | – | – | – | – | – | – | – | – | – | – | – |
| Cn1cnc2c(F)c(Nc3ccc(Br)cc3F)c(C(=O)NOCCO)cc21 [Binimetinib] | 1.03 ± 0.019 | 1.02 ± 0.018 | 0.988 ± 0.021 | 0.984 ± 0.058 | 0.95 ± 0.028 | 0.957 ± 0.045 | 0.983 ± 0.036 | 0.923 ± 0.015 | 0.945 ± 0.05 | 0.893 ± 0.027 | 0.861 ± 0.077 | – | – | – | – | – | – | – | – | – | – | – |
| Cc1nc(-c2cn3c(n2)-c2ccc(-c4cnn(C(C)(C)C(N)=O)c4)cc2OCC3)n(C(C)C)n1 [Taselisib] | 0.973 ± 0.069 | 0.984 ± 0.066 | 0.985 ± 0.013 | 0.994 ± 0.028 | 0.899 ± 0.074 | 0.761 ± 0.038 | 0.541 ± 0.045 | 0.41 ± 0.012 | 0.348 ± 0.017 | 0.288 ± 0.012 | 0.22127 ± 0.00015 | – | – | – | – | – | – | – | – | – | – | – |
| Nc1cc(C(F)(F)F)c(-c2cc(N3CCOCC3)nc(N3CCOCC3)n2)cn1 [Buparlisib] | 1.03 ± 0.025 | 1 ± 0.052 | 1.02 ± 0.037 | 1.04 ± 0.035 | 1.03 ± 0.029 | 1.04 ± 0.019 | 0.93 ± 0.033 | 0.749 ± 0.035 | 0.157 ± 0.014 | 0.041 ± 0.00093 | 0.0484 ± 0.0029 | – | – | – | – | – | – | – | – | – | – | – |
| Cc1cnc(Nc2ccc(OCCN3CCCC3)cc2)nc1Nc1cccc(S(=O)(=O)NC(C)(C)C)c1 [Fedratinib] | 0.99 ± 0.063 | 1.03 ± 0.045 | 1.047 ± 0.01 | 1.06 ± 0.028 | 1.04 ± 0.016 | 1.03 ± 0.023 | 0.859 ± 0.067 | 0.489 ± 0.014 | 0.123 ± 0.01 | 0.0173 ± 0.002 | 0.0056 ± 0.00035 | – | – | – | – | – | – | – | – | – | – | – |
| COc1cc2c(Oc3ccc4[nH]c(C)cc4c3F)ncnc2cc1OCCCN1CCCC1 [Cediranib] | 1.04 ± 0.014 | 1.07 ± 0.058 | 1.1 ± 0.02 | 1.06 ± 0.033 | 1.06 ± 0.066 | 1.07 ± 0.015 | 1.062 ± 0.0014 | 1.07 ± 0.064 | 0.877 ± 0.033 | 0.763 ± 0.019 | 0.133 ± 0.049 | – | – | – | – | – | – | – | – | – | – | – |
| CC(=O)Nc1cccc(-n2c(=O)n(C3CC3)c(=O)c3c(Nc4ccc(I)cc4F)n(C)c(=O)c(C)c32)c1 [Trametinib] | 1.03 ± 0.035 | 1.04 ± 0.025 | 0.987 ± 0.031 | 0.99 ± 0.028 | 0.937 ± 0.077 | 0.984 ± 0.063 | 0.976 ± 0.031 | 0.969 ± 0.048 | 0.962 ± 0.05 | 0.948 ± 0.059 | 0.923 ± 0.017 | – | – | – | – | – | – | – | – | – | – | – |
| CC(C)N1CCN(Cc2cnc(-c3cc(-c4cccc5[nH]ccc45)cc4[nH]ncc34)o2)CC1 [Nemiralisib] | 0.934 ± 0.039 | 0.915 ± 0.03 | 0.945 ± 0.034 | 0.932 ± 0.035 | 0.985 ± 0.068 | 0.957 ± 0.041 | 0.977 ± 0.026 | 0.961 ± 0.055 | 0.931 ± 0.04 | 0.76 ± 0.027 | 0.114 ± 0.053 | – | – | – | – | – | – | – | – | – | – | – |
| Cc1cc(Nc2ncnc3ccc(NC4=NC(C)(C)CO4)cc23)ccc1Oc1ccn2ncnc2c1 [Tucatinib] | 1.07 ± 0.025 | 1.04 ± 0.043 | 1.06 ± 0.039 | 1.1 ± 0.022 | 1.13 ± 0.064 | 1.06 ± 0.059 | 1.08 ± 0.079 | 1.06 ± 0.019 | 1.01 ± 0.011 | 0.98 ± 0.023 | 0.883 ± 0.017 | – | – | – | – | – | – | – | – | – | – | – |
| COc1cc2c(cc1O)CCN[C@]21CS[C@@H]2c3c(OC(C)=O)c(C)c4c(c3[C@H](COC1=O)N1[C@@H]2[C@H]2c3c(cc(C)c(OC)c3O)C[C@@H]([C@@H]1O)N2C)OCO4 [Trabectedin] | – | – | – | – | – | – | – | – | – | – | – | 0.945 ± 0.051 | 0.859 ± 0.046 | 0.643 ± 0.086 | 0.388 ± 0.069 | 0.169 ± 0.019 | 0.0592 ± 0.008 | 0.00217 ± 0.0018 | 3.33e-05 ± 0.00035 | 0.0054 ± 0.0013 | 1.02 ± 0.063 | 0.938 ± 0.031 |
| C[C@@H]1COCCN1c1cc(-c2ccnn2C)c2ccnc(-c3ccn[nH]3)c2n1 | 1.03 ± 0.031 | 1.05 ± 0.03 | 1.03 ± 0.052 | 1.09 ± 0.055 | 1.05 ± 0.039 | 0.856 ± 0.024 | 0.562 ± 0.037 | 0.285 ± 0.0067 | 0.156 ± 0.0046 | 0.101 ± 0.0046 | 0.112 ± 0.0035 | – | – | – | – | – | – | – | – | – | – | – |
| Cc1cc(C)c(/C=C2\C(=O)Nc3ccccc32)[nH]1 [Semaxanib] | 0.972 ± 0.06 | 1.01 ± 0.056 | 0.954 ± 0.028 | 1 ± 0.056 | 0.967 ± 0.055 | 0.999 ± 0.018 | 1 ± 0.027 | 0.986 ± 0.09 | 0.925 ± 0.042 | 0.934 ± 0.052 | 0.765 ± 0.068 | – | – | – | – | – | – | – | – | – | – | – |

From the supplement of paper PMC10883282
